The values below come from patent publication US20200339625A1, “NOVEL RADIOMETAL-BINDING COMPOUNDS FOR DIAGNOSIS OR TREATMENT OF PROSTATE SPECIFIC MEMBRANE ANTIGEN-EXPRESSING CANCER” (PROVINCIAL HEALTH SERVICES AUTHORITY, priority 2017, published 2020).

Data set [1] can be described thus: Radiation dosimetry calculation (OLINDA), extrapolated to humans (male). More on the design: species or system human. The protocol: Internal dosimetry estimates were calculated using the organ level internal dose assessment (OLINDA) software v.2.0.^37 These estimates were performed for the mouse using the 25 g MOBY phantom,^38 for humans using the NURBS model for the adult male,^39 and for the tumors using the previously reported unit density sphere model.^40 All the phantoms and the sphere model are available in OLINDA and require the input of the total number of decays normalized by injected activity in units of MBq×h/MBq for each of the source organ/tumor.
Extrapolation of the mice biodistribution data to humans was performed using the method proposed by Kirschner et al.^41 and shown in the following equation: […]
Where morgan is the mass of the organ and M represents the total body mass. The subscripts indicate whether the values correspond to human or mouse. Masses for the organs and total body weight were taken from the simulated masses of the phantoms in OLINDA. […] The % ID/g of the blood was assumed to be the one for the heart contents of the phantom. This value was also used to calculate the bone marrow uptake based on the method described by Wessels et al.^42 in which we assumed a hematocrit fraction of 0.40 based on the patient values shown on that study. At the end, red marrow values used the blood measurements scaled by a factor of 0.32. In the human case, the fat, muscle, and seminal vesicles that are present in the biodistribution data are not modelled in the phantom so the numbers of decays present in these regions were included in the remainder of the body. The data was again fitted as for the mouse case and the values for the total number of decays in units of MBq×h/MBq were inputted in OLINDA.

The subject of another data set is LNCaP tumor-bearing mice. The data set can be described thus: Endoradiotherapy study. The class given is in vivo. The conditions noted are these: for Median survival: n=8. The procedure: SPECT/CT imaging and biodistribution were performed using NOD-scid IL2Rgammanu^null (NSG) male mice, and the endoradiotherapy study was conducted using NOD.Cg-Rag1^tm1MomII2rg^tm1WjI/SzJ (NRG) male mice. The mice were maintained and the experiments were conducted in according to the guidelines established by the Canadian Council on Animal Care and approved by Animal Ethics Committee of the University of British Columbia. Mice were anesthetized by inhalation with 2% isoflurane in oxygen, and implanted subcutaneously with 1×10^7 LNCaP cells posterior to the left shoulder. Mice were used for studies when the tumor reached 5-8 mm in diameter 5-6 weeks after inoculation.
For radiotherapy study, tumor-bearing mice were injected with saline (the control group), ^177Lu-PSMA-617 (18.5 MBq) or ^177Lu-HTK01169 (18.5, 9.3, 4.6, or 2.3 MBq) (n=8 per group). Tumor size and body weight were measured twice a week from the date of injection (Day 0) until completion of the study (Day 120). Endpoint criteria were defined as >20% weight loss, tumor volume >1000 mm^3, or active ulceration of the tumor.

The mark [2] stands for this setting: source organ Adrenals, human male.
[3] abbreviates: source organ Cortical bone, human male.
[4] abbreviates: source organ Heart contents, human male.
Where [5] appears, read: source organ Heart wall, human male.
Setting [6] is: source organ Kidneys, human male.
Where [7] appears, read: source organ Left colon, human male.
[8] abbreviates: source organ Pancreas, human male.
[9] abbreviates: source organ Rectum, human male.
Setting [10] is: source organ Red marrow, human male.
Where [11] appears, read: source organ Remainder of the body, human male.
[12] abbreviates: source organ Right colon, human.
[13] abbreviates: source organ Small Intestine, human.
Where [14] appears, read: source organ Spleen, human male.
[15] abbreviates: source organ Stomach contents, human male.
Where [16] appears, read: source organ Testes, human male.
[17] abbreviates: source organ Urinary bladder contents, human male.

Take `O=C([O-])CN1CCN(CC(=O)[O-])CCN(CC(=O)NCCCC[C@H](NC(=O)[C@H](CCC(=O)O)NC(=O)CCCc2ccc(I)cc2)C(=O)NC[C@H]2CC[C@H](C(=O)N[C@@H](Cc3ccc4ccccc4c3)C(=O)NCCCC[C@H](NC(=O)N[C@@H](CCC(=O)O)C(=O)O)C(=O)O)CC2)CCN(CC(=O)[O-])CC1.[177Lu+3]` [^177Lu-HTK01169]: the Kinetics value in data set [1] (setting [2]) was 1.55E−02 MBq-h/MBq; in data set [1] (source organ Brain, human male), 3.42E−02 MBq-h/MBq; in data set [1] (setting [3]), 1.03E−02 MBq-h/MBq; in data set [1] (setting [4]) it was 3.16E−01 MBq-h/MBq; in data set [1] (setting [5]), 7.97E−02 MBq-h/MBq; in data set [1] (setting [6]), 6.81E+00 MBq-h/MBq. For the same compound, the Kinetics value in data set [1] (setting [7]) was 1.99E−02 MBq-h/MBq; in data set [1] (source organ Liver, human male), 4.98E−01 MBq-h/MBq; in data set [1] (source organ Lungs, human male) it was 6.03E−01 MBq-h/MBq; in data set [1] (setting [8]) it was 2.05E−02 MBq-h/MBq; in data set [1] (setting [9]) it was 9.27E−03 MBq-h/MBq; in data set [1] (setting [10]), 2.46E−01 MBq-h/MBq. The Kinetics value in data set [1] (setting [11]) is 1.21E+01 MBq-h/MBq; in data set [1] (setting [12]), 1.99E−02 MBq-h/MBq; in data set [1] (setting [13]) it was 8.61E−02 MBq-h/MBq; in data set [1] (setting [14]), 2.03E−01 MBq-h/MBq; in data set [1] (setting [15]) it was 1.44E−02 MBq-h/MBq; in data set [1] (setting [16]), 1.25E−02 MBq-h/MBq. Also, the Kinetics value in data set [1] (setting [17]) is 1.72E−01 MBq-h/MBq. Moreover, in the data set with LNCaP tumor-bearing mice (2.3-18.5 MBq), the “change of tumor size over time, dependence on injected radioactivity” value was “higher radioactivity leading to more effective and prolonged tumor growth inhibition”. Also, the Median survival is on record as 28 days in the data set on LNCaP tumor-bearing mice (2.3 MBq injected), 61 days in the data set with LNCaP tumor-bearing mice (4.6 MBq injected), 103 days with LNCaP tumor-bearing mice (9.3 MBq injected) and above 120 days with LNCaP tumor-bearing mice (18.5 MBq injected). The “survival until end of study (Day 120)” value with LNCaP tumor-bearing mice (18.5 MBq) is given as “survived until the end of the study”. Moreover, in the data set with LNCaP tumor-bearing mice (mouse, in vivo), the “administered activity needed for similar treatment efficacy, relative to 177Lu-PSMA-617” value was “only a quarter”.

`O=C([O-])CN1CCN(CC(=O)[O-])CCN(CC(=O)NCC2CCC(C(=O)N[C@@H](Cc3ccc4ccccc4c3)C(=O)NCCCC[C@H](NC(=O)N[C@@H](CCC(=O)O)C(=O)O)C(=O)O)CC2)CCN(CC(=O)[O-])CC1.[177Lu+3]` (some centres unmarked) [^177Lu-PSMA-617, reference compound]: the Kinetics value is 1.00E−03 MBq-h/MBq in data set [1] (setting [2]); 6.71E−03 MBq-h/MBq in data set [1] (source organ Brain, human male); 5.30E−03 MBq-h/MBq in data set [1] (setting [3]); 4.29E−03 MBq-h/MBq in data set [1] (setting [4]); 2.02E−03 MBq-h/MBq in data set [1] (setting [5]); 3.98E−01 MBq-h/MBq in data set [1] (setting [6]). Moreover, the Kinetics value in data set [1] (setting [7]) is given as 1.53E−03 MBq-h/MBq; in data set [1] (source organ Liver, human male), 2.32E−02 MBq-h/MBq; in data set [1] (source organ Lungs, human male), 2.41E−02 MBq-h/MBq; in data set [1] (setting [8]), 8.55E−04 MBq-h/MBq; in data set [1] (setting [9]), 7.16E−04 MBq-h/MBq; in data set [1] (setting [10]) it was 3.15E−03 MBq-h/MBq. Further, the Kinetics value in data set [1] (setting [11]) is 5.39E−01 MBq-h/MBq; in data set [1] (setting [12]) it was 1.53E−03 MBq-h/MBq; in data set [1] (setting [13]) it was 6.65E−03 MBq-h/MBq; in data set [1] (setting [14]) it was 6.93E−03 MBq-h/MBq; in data set [1] (setting [15]) it was 5.06E−03 MBq-h/MBq; in data set [1] (setting [16]), 3.72E−04 MBq-h/MBq. Besides, the Kinetics value in data set [1] (setting [17]) is 3.15E−01 MBq-h/MBq. Moreover, the “change of tumor size over time” value in the data set on LNCaP tumor-bearing mice (18.5 MBq) was “shrank initially but grew back later”. This compound displayed a Median survival with LNCaP tumor-bearing mice (18.5 MBq injected) of 58 days.
